Results on 3 molecules are retold here after patent US20260174905A1, “COMPOSITIONS AND METHODS FOR IMPROVED ADENOVIRAL-BASED GENE THERAPY UTILIZING CORT[…]” (Pacira Therapeutics, Inc., priority 2023, published 2026).

The test system of one series is HEK293 cells. Nature of the series: HDAd-LacZ infection with corticosteroid, X-Gal staining for LacZ expression in HEK293 cells. The following applies: dose range of corticosteroid with HDAd-LacZ. Format: cell-based. The protocol: Methods: 116 cells or HEK293 cells were seeded in 12-well or 96-well plates in standard cell culture media. One day later, cells were infected with the gene therapy vector HDAd-LacZ (a helper-dependent adenoviral vector expressing beta-galactosidase (LacZ) under the control of the constitutive CMV promoter) at different multiplicities of infections (MOIs; virus particles per cells seeded) mixed with different amounts/concentrations of the corticosteroids triamcinolone acetonide (TAC; TriamHEXAL®, Hexal AG, Holzkirchen, Germany), betamethasone (Celestan®, MSD, Kenilworth, NJ, USA), or dexamethasone (Lipotalon®, Recordati, Milan, Italy). HDAd-LacZ was produced by GeneQuine Biotherapeutics GmbH (HDAd-LacZ originally sourced from Baylor College of Medicine, USA). In an experiment evaluating different timing or administration of the corticosteroid relative to administration of the HDAs-LacZ, cells were either pre-treated with TAC 3 hours prior to infection with HDAd-LacZ (PRE), TAC treatment and HDAd-LacZ infection was done simultaneously as described above (SIMULTANEOUS), or cells were treated with TAC 3 hours post infection with HDAd-LacZ (POST). One day later, supernatants were aspirated and cell monolayers were stained for LacZ expression using the X-Gal staining kit according to manufacturer's manual (OZ Bioscience, Marseille, France). Macroscopic and microscopic (at 4× or 10× magnification) photos of the stained monolayers were taken (blue staining indicates LacZ expression). A preliminary measure of intensity of the staining was semi-quantitatively measured using ImageJ software by converting the images to 8-bit grayscale and drawing regions of interest around the areas to be measured. The mean intensity values (on a scale of 0-255; 0 being black and 255 being white) were subtracted from 255, divided by 255 and multiplied by 100, i.e. reported values were on a scale of 0-100 (0 being white and 100 being black) where higher values indicate more intense (darker) staining.

A further series concerns rat knee joint. Nature of the series: Synovial/periarticular inflammation in rat knee joint after intraarticular HDAd-LacZ with or without TAC. As to conditions: coadministration of 0.06 mg TAC with HDAd-LacZ. In kind it is in vivo. The protocol:
Rats obtained from Envigo (Indianapolis, IN) were housed in polycarbonate cages, 4 animals per cage. After 4 days acclimatization, on study day 0, animals (mean weight of 310 g) were randomized into groups by bodyweight, 6 animals per group. Following randomization, test article administration was performed by intraarticular injection of 50 μL/joint. In respective groups, animals were treated with: 5E7 VP HDAd-LacZ, 5E8 VP HDAd-LacZ, 5E9 VP HDAd-LacZ, 5E10 VP HDAd-LacZ, 5E7 VP HDAd-LacZ+0.06 mg TAC, 5E8 VP HDAd-LacZ+0.06 mg TAC, 5E9 VP HDAd-LacZ+0.06 mg TAC, 5E10 VP HDAd-LacZ+0.06 mg TAC or vehicle.
For the groups co-treated with HDAd-LacZ and TAC, TAC suspension was prepared by diluting the commercially available injectable suspension (Kenalog 10, Bristol-Myers Squibb) with isotonic saline solution and added to the HDAd-LacZ preparation (i.e. the injection volume of 50 μL of the test article+TAC mixture contained 0.06 mg TAC).
At necropsy on study day 4, the rats were anesthetized with isoflurane. […]
The tissues were evaluated by the investigator microscopically for inflammation and X-gal staining in a blinded manner. The approximate lengths of the medial and lateral synovia were measured using an ocular micrometer. The lengths of the X-gal-stained areas were measured, and the length of staining relative to the total length of the area (%) was determined. […]

In the case of `C[C@@H]1C[C@H]2[C@@H]3CCC4=CC(=O)C=C[C@]4(C)[C@@]3(F)[C@@H](O)C[C@]2(C)[C@@]1(O)C(=O)CO` [dexamethasone], the “concentration at which enhancement of HDAd-mediated LacZ expression started” value in the series on HEK293 cells is given as 3.9 ng/mL. On the same count and under the same terms, the value for `C[C@H]1C[C@H]2[C@@H]3CCC4=CC(=O)C=C[C@]4(C)[C@@]3(F)[C@@H](O)C[C@]2(C)[C@@]1(O)C(=O)CO` [betamethasone] was 3.9 ng/mL. As to `CC1(C)O[C@@H]2C[C@H]3[C@@H]4CCC5=CC(=O)C=C[C@]5(C)[C@@]4(F)[C@@H](O)C[C@]3(C)[C@]2(C(=O)CO)O1` [TAC, triamcinolone acetonide], the “concentration at which enhancement of HDAd-mediated LacZ expression started” value in the series on HEK293 cells came to 0.18 ng/mL. Moreover, the “HDAd-LacZ mediated inflammation (synovial/periarticular)” value with rat knee joint is given as “reduced”.
